Test results published in patent US9289411B2, “Anti-HCV agent” (NATIONAL UNIVERSITY CORPORATION OKAYAMA UNIVERSITY, priority 2011, dated 2016).
Read-outs that look alike come from different tables or passages of the source.

Experiments:
[1] = tested on: HCV-RNA replication in AH1R cells (HCV-AH1 strain, HuH-7-derived); experiment: microbe, parasite or virus in culture; assay type: cell-based, HCV genotype 1b; settings: for EC50: Hepatitis C virus, 72 hours, renilla luciferase activity
From the text: Assay systems using OR6 cells (HCV-O strain), 1B-4R cells (HCV-1B-4 strain), and AH1R cells (HCV-AH1R strain) as HuH-7 cell-derived full-length HCV-RNA-replicating cells, and ORL8 cells (HCV-O strain), ORL11 cells (HCV-O strain), 1B-4RL cells (HCV-1B-4 strain), and KAH5RL cells (HCV-KAH5 strain) as Li23 cell-derived full-length HCV-RNA-replicating cells were used for the quantitative analysis of anti-HCV activity and evaluation of a cytotoxic effect in the present invention. […] In addition, all the HCV strains belong to genotype 1b.
(§1) N-89 was added so as to achieve concentrations of 500 nM, a 2-fold dilution series from 500 nM (250, 125, 63, 31, 16, and 8 nM), and 0. The luciferase activities were measured 72 hours after the culture.
N-251 was added so as to achieve concentrations of 2 μM, a 2-fold dilution series from 2 μM (1, 0.5, 0.25, 0.13, 0.06, and 0.03 μM), and 0. The luciferase activities were measured 72 hours after the culture.

[2] = tested on: HCV core protein in OR6 cells; experiment: Western blot analysis of HCV core protein expression in OR6 cells; assay type: cell-based, HCV genotype 1b; settings: 72 hours, N-89 0.31-20 μM, N-251 0.16-10 μM
Protocol: N-89 and N-251 were diluted with DMSO. After 72 hours, sampling was performed with 100 μL of 2×SDS buffer. 10 μL of a sample were applied to SDS-PAGE electrophoresis and subjected to Western blot analysis using an anti-HCV core antibody and an anti-β-actin antibody according to a conventional method. For the detection of β-actin, a sample diluted 10-fold with 2×SDS buffer in advance was used because the expression amount of β-actin was high.

[3] = tested on: HCV-RNA replication in ORL8 cells; experiment: Combination effect with existing anti-HCV agents in ORL8 cells (luciferase activity vs expected additive curve); assay type: cell-based, HCV genotype 1b; settings: for effect in combination with CsA: CsA 0.2, 0.3, 0.4 μM; for effect in combination with CsA / effect in combination with FLV / effect in combination with RBV: compound 0.1, 0.2, 0.4 μM; for effect in combination with FLV: FLV 0.3, 1.0, 3.0 μM; for effect in combination with RBV: RBV 12.5, 25, 50 μM
Protocol: The effect of N-89 in combination with RBV was examined using ORL8 cells.
The drugs RBV and N-89 were added so that the concentrations of RBV were set to 0, 12.5, 25, and 50 μM and the concentrations of N-89 were set to 0, 0.1, 0.2, and 0.4 μM at each concentration of RBV. The luciferase activity was measured 72 hours after the culture.
The upper left panel of FIG. 19 and the upper right panel of FIG. 19 show the logarithmic and linear plots expressed by % of the measurement results, respectively.
The effect of N-251 in combination with RBV was examined using ORL8 cells.
The effect of N-89 in combination with IFN-α and RBV was examined using ORL8 cells.
The drugs N-89, IFN-α, and RBV were added so that the concentrations of the two drugs IFN-α and RBV were fixed as follows: both of IFN-α and RBV at 0; IFN-α at 1 IU/mL and RBV at 6.25 μM; IFN-α at 4 IU/mL and RBV at 12.5 μM; and IFN-α at 16 IU/mL and RBV at 25 μM, and the concentrations of N-89 were set to 0, 0.1, 0.2, and 0.4 μM in the respective combinations of IFN-α and RBV. The luciferase activity was measured 72 hours after the culture.
The luciferase activity was measured 72 hours after the culture.
The effect of N-89 in combination with FLV was examined using ORL8 cells.
The drugs FLV and N-89 were added so that the concentrations of FLV were set to 0.3, 1.0, and 3.0 μM and the concentrations of N-89 were set to 0, 0.1, 0.2, and 0.4 μM at each concentration of FLV. The luciferase activity was measured 72 hours after the culture.
The effect of N-251 in combination with FLV was examined using ORL8 cells.
The drugs FLV and N-251 were added so that the concentrations of FLV were set to 0.3, 1.0, and 3.0 μM and the concentrations of N-251 were set to 0, 0.1, 0.2, and 0.4 μM at each concentration of FLV. The luciferase activity was measured 72 hours after the culture.

[4] = tested on: HCV-RNA replication in ORL11 cells (HCV-O strain, Li23-derived); experiment: microbe, parasite or virus in culture; assay type: cell-based, HCV genotype 1b; settings: for EC50: Hepatitis C virus, 72 hours, renilla luciferase activity
Protocol: as §1
N-251 was added so as to achieve concentrations of 1 μM, a 2-fold dilution series from 1 μM (500, 250, 125, 63, 31, and 16 nM), and 0. The luciferase activities were measured 72 hours after the culture.

[5] = tested on: HCV-RNA replication in ORL8 cells (HCV-O strain, Li23-derived); experiment: microbe, parasite or virus in culture; settings: for EC50: Hepatitis C virus, ORL8, 72 h; for SI (CC50/EC50) / suppression of the level of HCV-RNA replication: ORL8 cells; for suppression of the level of HCV-RNA replication: 1 μM
From the text: Assay systems using OR6 cells (HCV-O strain), 1B-4R cells (HCV-1B-4 strain), and AH1R cells (HCV-AH1R strain) as HuH-7 cell-derived full-length HCV-RNA-replicating cells, and ORL8 cells (HCV-O strain), ORL11 cells (HCV-O strain), 1B-4RL cells (HCV-1B-4 strain), and KAH5RL cells (HCV-KAH5 strain) as Li23 cell-derived full-length HCV-RNA-replicating cells were used for the quantitative analysis of anti-HCV activity and evaluation of a cytotoxic effect in the present invention. The three cell lines, i.e., the 1B-4R cells, the 1B-4RL cells, and the KAH5RL cells have been disclosed in WO 2010/026965 A1. The AH1R cells may be produced with reference to Mori K et al., BBRC, 371:104-109, 2008 and WO 2010/026965 A1. In addition, all the HCV strains belong to genotype 1b.
As necessary, an increase or decrease in expression level of an HCV protein (core protein) was examined by a Western blot method.
In the measurement of the renilla luciferase activity and the measurement by the WST-1 method, experiments were performed in three wells independent of each other, and their means and standard deviation were calculated.
The anti-HCV activities of N-89 and N-251 were examined using ORL8 cells and the EC50 values were calculated. An experimental scale and schedule are the same as those in Example 1.
N-89 and N-251 were added so as to achieve concentrations of 5 μM, a 2-fold dilution series from 5 μM (2.5, 1.3, 0.63, 0.31, 0.16, and 0.08 μM), and 0. The luciferase activities were measured 72 hours after the culture.
The anti-HCV activity of artemisinin was examined using OR6 cells and ORL8 cells and the EC50 values were calculated. An experimental scale and schedule are the same as those in Example 1.
Artemisinin was added so as to achieve concentrations of 100 μM, a 2-fold dilution series from 100 μM (50, 25, 13, 6.3, 3.1, and 1.6 μM), and 0. The luciferase activities were measured 72 hours after the culture.

[6] = tested on: HCV core protein in HCV-O/RLGE cells; experiment: Western blot analysis of HCV core protein in HCV-O/RLGE cells; assay type: cell-based; settings: 72 hours, concentration region in which β-actin did not reduce
Protocol: HCV-O/RLGE cells (Ikeda et al., Liver Int 31:871-880, 2011) were plated onto a 6-well plate (5×10^4 cells in 3 mL of medium for HuH-7 cell line per well) and cultured. […] 72 hours after the culture, the cells were lysed with 100 μL of 2×SDS buffer to prepare a sample for Western blot analysis. The Western blot analysis using an antibody against an HCV core protein (CP11; Institute of Immunology, Tokyo) was performed according to a conventional method. β-Actin was detected with an anti-β-actin antibody (AC-15; Sigma-Aldrich) in a sample diluted 10-fold with 2×SDS buffer.

SMILES	SI (CC50/EC50) [1]	EC50 [1] [nM]	level of the HCV core protein (Western blot) [2]	effect in combination with CsA ([3]; 72 hours)	effect in combination with FLV ([3]; 72 hours)	effect in combination with RBV ([3]; 72 hours)	SI (CC50/EC50) [4]	EC50 [4] [nM]	EC50 [5] [nM]	SI (CC50/EC50) [5]	suppression of the level of HCV-RNA replication [5] [%]	amount of HCV core protein (Western blot) [6]	SI (CC50/EC50) ([1]; listed as N89)	gaps between actually measured values and values expected as an additive effect ([3]; IFN-α 1 IU/mL and RBV 6.25 μM, N-89 0.1-0.4 μM)	effect in combination with IFN-α and RBV ([3]; IFN-α 4 IU/mL + RBV 12.5 μM and IFN-α 16 IU/mL + RBV 25 μM, N-89 0.1-0.4 μM, 72 hours)
OCCCCCCC1COOC2(CCCCCCCCCCC2)OOC1 [N-251, 6-(1,2,6,7-tetraoxaspiro[7,11]nonadec-4-yl)]	3.5	140	reduced depending on the concentrations	synergistic effect	synergistic effect	synergistic effect	19	59	100	13	99	clearly reduced	–	–	–
C1CCCCCC2(CCCCC1)OOCCCOO2 [N-89, 1,2,6,7-tetraoxaspiro[7,11]nonadecane]	about 20	25	reduced depending on the concentrations	synergistic effect	synergistic effect	synergistic effect	12	45	89	26	99	clearly reduced	~20	little gaps	synergistic effect
